From PubChem BioAssay AID623925 (Vanderbilt Specialized Chemistry Center, 2012)
Calls of active or inactive are those of the source.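 Rule for the calls: active = compounds whose calcium response changes with concentration, giving a dose-dependent curve as judged by the depositor; inactive = the rest, with no dose-dependent response.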

These molecules were tested against Muscarinic acetylcholine receptor M2 (Homo sapiens) (UniProt P08172) (assay: human M2 receptor positive allosteric modulation, SAR follow-up, selectivity assay for M4 PAM optimization, CHO cells, Gqi5 chimera, calcium mobilization (AID 623925)). Conditions: CHO hM2/Gqi5 calcium mobilization, ACh EC20 potentiation.
Muscarinic acetylcholine receptor M2 (Homo sapiens), sequence (P08172 whole entry, looked up): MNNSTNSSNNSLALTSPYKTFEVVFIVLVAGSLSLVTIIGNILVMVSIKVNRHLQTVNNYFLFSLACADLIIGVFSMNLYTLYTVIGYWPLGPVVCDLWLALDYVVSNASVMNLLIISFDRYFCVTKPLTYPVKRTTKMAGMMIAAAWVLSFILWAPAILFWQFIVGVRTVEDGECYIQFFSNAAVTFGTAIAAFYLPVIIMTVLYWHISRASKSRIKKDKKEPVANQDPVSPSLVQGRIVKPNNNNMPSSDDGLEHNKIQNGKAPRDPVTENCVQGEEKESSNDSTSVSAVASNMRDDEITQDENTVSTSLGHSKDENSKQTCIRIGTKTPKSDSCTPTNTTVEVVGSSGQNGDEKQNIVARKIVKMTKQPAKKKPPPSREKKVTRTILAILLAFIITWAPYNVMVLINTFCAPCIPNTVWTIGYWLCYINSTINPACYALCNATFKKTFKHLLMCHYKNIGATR

outcome	EC50	Compound
inactive	–	Cc1nc2sc(C(=O)NCc3ccc4c(c3)OCO4)c(N)c2c(C)c1Cl
–	548 nM	Cc1nc2sc(C(=O)NC3CC3)c(N)c2c(C)c1Cl
inactive	–	Cc1nc2sc(C(=O)NCc3cccnc3)c(N)c2c(C)c1Cl
inactive	–	Cc1nc2sc(C(=O)NCc3ccccc3)c(N)c2c(C)c1Cl
inactive	–	Cc1nc2sc(C(=O)NCc3ccncc3)c(N)c2c(C)c1Cl

Same assay, conditions: CHO hM2/Gqi5 calcium mobilization, ACh EC20 potentiation; at 30 µM (top of the series)

% ACh max response	Compound
inactive	Cc1nc2sc(C(=O)NCc3nccs3)c(N)c2c(C)c1Cl
inactive	Cc1nc2sc(C(=O)NCCc3ccncc3)c(N)c2c(C)c1Cl
inactive	Cc1nc2sc(C(=O)NCc3cccc(F)c3F)c(N)c2c(C)c1Cl
inactive	COc1ccc(C)c2sc(NC(=O)c3ccncc3)nc12
inactive	Cc1nc2sc(C(=O)NCc3ccncn3)c(N)c2c(C)c1Cl
